Reference: the supplement of paper PMC8671470

How the values were obtained:
Settings in all cases: 72 h
[1] = test system: MV4-11
Outline: (§1)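 The IC50 was derived from log-logistic dose–response fitting. Each of fifteen myeloid leukaemia cell lines, seeded in RPMI 1640 within its linear growth range, was exposed in 384-well plates to five tenfold doses (1 to 10,000 nM) in duplicate for 72 h at 37 °C and 5% CO2. Luminescent ATP viability readings were normalised to vehicle and to a positive control at 10 µM before four-parameter curve fitting.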

[2] = test system: LAMA-84
Outline: as §1

[3] = test system: KU-812
Outline: as §1

[4] = test system: KCL-22
Outline: as §1

[5] = test system: HEL
Outline: as §1

[6] = test system: SHI-1
Outline: as §1

[7] = test system: Mono-Mac-6
Outline: as §1

[8] = test system: MOLM-13
Outline: as §1

[9] = test system: ML-2
Outline: as §1

[10] = test system: K-562
Outline: as §1

[11] = test system: THP-1
Outline: as §1

[12] = test system: KG-1
Outline: as §1

[13] = test system: NOMO-1
Outline: as §1

[14] = test system: HL-60
Outline: as §1

[15] = test system: BV-173
Outline: as §1

[16] = test system: HL-60; experiment: area under dose-response curve (viability, 1 nM-10 uM) (fraction (0-1)); higher = more sensitive
Outline: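 For each screen, HL-60 cells in RPMI 1640 with 10% FBS carried either DMSO or 100 nM of one of three metabolic inhibitors while the full library was applied at five tenfold concentrations, 1–10,000 nM, in duplicate. Plates were 384-well and were kept 72 h at 37 °C, 5% CO2. Viability, measured by CellTiter-Glo, was normalised to wells with DMSO and with 10 μM proteasome inhibitor. Where area under the curve appears, it was fitted by four-parameter log-logistic models in drc and PharmacoGx.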

[17] = test system: LAMA-84; experiment: cell viability (% survival relative to DMSO control, bortezomib = 0%); higher = less cytotoxic
Outline: (§2)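 Reported values are percent survival from duplicate wells, averaged. Fifteen myeloid leukaemia cell lines were treated in 384-well plates with compounds at 1, 10, 100, 1000 or 10000 nM for 72 h at 37 °C in 5% CO2. Signals from CellTiter-Glo luminescence were scaled with vehicle as 100% and a 10 µM positive control as 0%.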

[18] = test system: KU-812; experiment: as above
Outline: as §2

[19] = test system: KCL-22; experiment: as above
Outline: as §2

[20] = test system: HEL; experiment: as above
Outline: as §2

[21] = test system: SHI-1; experiment: as above
Outline: as §2

[22] = test system: Mono-Mac-6; experiment: as above
Outline: as §2

[23] = test system: MOLM-13; experiment: as above
Outline: as §2

[24] = test system: ML-2; experiment: as above
Outline: as §2

[25] = test system: K-562; experiment: as above
Outline: as §2

[26] = test system: THP-1; experiment: as above
Outline: as §2

[27] = test system: KG-1; experiment: as above
Outline: as §2

[28] = test system: NOMO-1; experiment: as above
Outline: as §2

[29] = test system: HL-60; experiment: as above
Outline: as §2

[30] = test system: BV-173; experiment: as above
Outline: as §2

N#CC(C#N)=NNc1ccc(OC(F)(F)F)cc1 [FCCP]
Settings | IC50 (cell viability) [nM]
[1] | 2440
[2] | 2010
[3] | 1390
[4] | 1820
[5] | 1960
[6] | 4020
[7] | 2380
[8] | 2110
[9] | 2090
[10] | 1730
[11] | 3770
[12] | 2340
[13] | 3010
[14] | 2660
[15] | 2050

Settings | area under dose-response curve, co-treatment: AZD3965 100 nM | area under dose-response curve, co-treatment: DMSO vehicle | area under dose-response curve, co-treatment: GSK2194069 100 nM | area under dose-response curve, co-treatment: pictilisib 100 nM | cell viability, 1 nM [%] | cell viability, 10 nM [%] | cell viability, 100 nM [%] | cell viability, 1000 nM [%] | cell viability, 10000 nM [%]
[16] | 0.104 | 0.106 | 0.0946 | 0.107 | – | – | – | – | –
[17] | – | – | – | – | 100 | 97.6 | 94.2 | 79.1 | 0.398
[18] | – | – | – | – | 108 | 98 | 92.4 | 65.7 | 0.082
[19] | – | – | – | – | 110 | 83.6 | 85.8 | 68.3 | 4.51
[20] | – | – | – | – | 120 | 94.1 | 92.7 | 79.9 | 1.52
[21] | – | – | – | – | 94.6 | 103 | 101 | 91.5 | 35.1
[22] | – | – | – | – | 100 | 92 | 96.1 | 82.8 | 3.03
[23] | – | – | – | – | 121 | 92.6 | 99.3 | 82.7 | 0.459
[24] | – | – | – | – | 104 | 96.5 | 105 | 82.3 | 0.124
[25] | – | – | – | – | 109 | 93.4 | 92.1 | 74 | 1.97
[26] | – | – | – | – | 104 | 94.3 | 102 | 102 | 7.73
[27] | – | – | – | – | 101 | 101 | 94.7 | 80.8 | 7.07
[28] | – | – | – | – | 100 | 105 | 102 | 93.5 | 4.3
[29] | – | – | – | – | 88.2 | 92.4 | 109 | 88.5 | 0.501
[30] | – | – | – | – | 119 | 94.9 | 96.7 | 82 | -0.482

CCCc1cc(-c2nc(-c3ccc(C)cc3)cs2)ccn1 [Fatostatin]
Settings | IC50 (cell viability) [nM]
[1] | > 10000
[2] | > 10000
[3] | > 10000
[4] | > 10000
[5] | > 10000
[6] | 4850
[7] | > 10000
[8] | > 10000
[9] | 6690
[10] | > 10000
[11] | > 10000
[12] | 2760
[13] | > 10000
[14] | 8840
[15] | 6070

Settings | area under dose-response curve, co-treatment: AZD3965 100 nM | area under dose-response curve, co-treatment: DMSO vehicle | area under dose-response curve, co-treatment: GSK2194069 100 nM | area under dose-response curve, co-treatment: pictilisib 100 nM | cell viability, 1 nM [%] | cell viability, 10 nM [%] | cell viability, 100 nM [%] | cell viability, 1000 nM [%] | cell viability, 10000 nM [%]
[16] | < 0.0301 | < 0.0301 | 0.0533 | 0.0342 | – | – | – | – | –
[17] | – | – | – | – | 105 | 92.2 | 104 | 109 | 79.8
[18] | – | – | – | – | 100 | 101 | 87.2 | 106 | 74.1
[19] | – | – | – | – | 98.3 | 86.2 | 92.5 | 113 | 55.3
[20] | – | – | – | – | 92.6 | 97.8 | 92.1 | 108 | 90.4
[21] | – | – | – | – | 106 | 91.7 | 105 | 114 | 14.4
[22] | – | – | – | – | 94.5 | 97.3 | 101 | 111 | 87.8
[23] | – | – | – | – | 89.2 | 78.1 | 106 | 108 | 104
[24] | – | – | – | – | 93.4 | 101 | 92 | 111 | 29.5
[25] | – | – | – | – | 103 | 95.9 | 102 | 117 | 60.2
[26] | – | – | – | – | 95.2 | 90.1 | 108 | 98.5 | 81.1
[27] | – | – | – | – | 102 | 99.8 | 106 | 90.3 | 23.1
[28] | – | – | – | – | 98.3 | 91.3 | 104 | 111 | 97.4
[29] | – | – | – | – | 110 | 84.6 | 95.5 | 105 | 43.1
[30] | – | – | – | – | 90.6 | 98.4 | 94.9 | 112 | 24.8
